Laboratory results as given in US10344060B2 (priority 2013, dated 2019).

Tests used:
Experiment in all cases: cell-based
hNav1.3 = hNav1.3 (Homo sapiens, UniProt Q9NY46); conditions: IonWorks Quattro; Table 6; read-out: IC50 (μM) Nav1.3
hNav1.7 = hNav1.7 (Homo sapiens, UniProt Q15858); conditions: read-out: IC50 (μM) Nav1.7
hNav1.4 = hNav1.4 (Homo sapiens, UniProt P35499); assay type: cell-based; conditions: Table 6; for IC50: IonWorks Quattro, read-out: IC50 (μM) Nav1.4; for Nav1.4/Nav1.7: ratio of IonWorks Quattro IC50 values
hNav1.5 = hNav1.5 (Homo sapiens, UniProt Q14524); conditions: IonWorks Quattro; Table 6; read-out: IC50 (μM) Nav1.5
Sequence of hNav1.5 (Q14524 whole entry): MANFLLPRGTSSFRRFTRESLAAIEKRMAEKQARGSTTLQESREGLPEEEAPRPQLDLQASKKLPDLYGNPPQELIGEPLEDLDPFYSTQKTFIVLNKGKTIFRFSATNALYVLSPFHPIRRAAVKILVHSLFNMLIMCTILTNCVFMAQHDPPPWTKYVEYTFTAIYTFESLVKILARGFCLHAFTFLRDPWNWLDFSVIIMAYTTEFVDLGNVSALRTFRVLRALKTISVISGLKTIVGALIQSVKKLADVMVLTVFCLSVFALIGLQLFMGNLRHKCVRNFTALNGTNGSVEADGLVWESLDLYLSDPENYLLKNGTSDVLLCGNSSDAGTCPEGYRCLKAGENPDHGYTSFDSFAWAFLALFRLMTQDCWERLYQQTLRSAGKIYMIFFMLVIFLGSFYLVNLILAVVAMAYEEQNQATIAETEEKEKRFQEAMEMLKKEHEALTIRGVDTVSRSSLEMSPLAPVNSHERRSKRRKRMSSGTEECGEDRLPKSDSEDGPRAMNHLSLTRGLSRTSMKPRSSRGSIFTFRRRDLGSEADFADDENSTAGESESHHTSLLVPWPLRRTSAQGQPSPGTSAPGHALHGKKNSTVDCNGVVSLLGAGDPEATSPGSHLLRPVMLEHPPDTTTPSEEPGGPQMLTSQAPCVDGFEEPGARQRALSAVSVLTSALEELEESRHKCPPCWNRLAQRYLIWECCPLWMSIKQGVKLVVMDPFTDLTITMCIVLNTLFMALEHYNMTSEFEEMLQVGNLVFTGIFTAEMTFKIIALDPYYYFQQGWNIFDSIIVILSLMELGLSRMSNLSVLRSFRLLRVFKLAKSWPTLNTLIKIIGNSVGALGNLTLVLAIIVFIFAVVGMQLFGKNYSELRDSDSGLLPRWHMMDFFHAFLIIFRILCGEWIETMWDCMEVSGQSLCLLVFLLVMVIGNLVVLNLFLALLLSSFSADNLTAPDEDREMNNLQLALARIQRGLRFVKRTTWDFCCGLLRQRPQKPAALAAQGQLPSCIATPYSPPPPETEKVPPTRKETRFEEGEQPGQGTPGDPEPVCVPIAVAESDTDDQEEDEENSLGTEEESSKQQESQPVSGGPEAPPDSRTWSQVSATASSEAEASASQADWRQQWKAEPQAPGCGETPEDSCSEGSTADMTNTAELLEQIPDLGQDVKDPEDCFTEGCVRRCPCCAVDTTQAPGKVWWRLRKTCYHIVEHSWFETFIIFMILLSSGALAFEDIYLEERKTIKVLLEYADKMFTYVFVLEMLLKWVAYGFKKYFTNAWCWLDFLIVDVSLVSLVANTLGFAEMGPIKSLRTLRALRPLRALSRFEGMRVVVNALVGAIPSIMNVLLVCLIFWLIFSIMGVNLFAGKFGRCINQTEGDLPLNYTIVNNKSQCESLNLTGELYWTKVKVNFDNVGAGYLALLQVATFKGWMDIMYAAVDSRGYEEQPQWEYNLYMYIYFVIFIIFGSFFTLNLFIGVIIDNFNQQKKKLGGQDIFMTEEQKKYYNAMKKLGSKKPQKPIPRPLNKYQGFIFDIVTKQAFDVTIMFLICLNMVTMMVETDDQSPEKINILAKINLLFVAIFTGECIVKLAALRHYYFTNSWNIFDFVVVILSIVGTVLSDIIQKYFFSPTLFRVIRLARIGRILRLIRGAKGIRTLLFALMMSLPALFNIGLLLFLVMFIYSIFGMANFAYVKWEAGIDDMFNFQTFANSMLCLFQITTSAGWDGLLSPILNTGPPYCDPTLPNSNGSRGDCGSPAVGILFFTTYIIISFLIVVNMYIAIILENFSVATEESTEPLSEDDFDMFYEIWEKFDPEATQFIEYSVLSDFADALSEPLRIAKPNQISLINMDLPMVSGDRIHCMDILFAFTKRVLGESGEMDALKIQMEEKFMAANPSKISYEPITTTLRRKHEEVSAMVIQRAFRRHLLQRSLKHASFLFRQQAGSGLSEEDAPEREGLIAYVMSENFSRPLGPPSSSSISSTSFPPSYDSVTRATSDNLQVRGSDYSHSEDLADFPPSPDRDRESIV

Sequence of hNav1.3 (Q9NY46 whole entry): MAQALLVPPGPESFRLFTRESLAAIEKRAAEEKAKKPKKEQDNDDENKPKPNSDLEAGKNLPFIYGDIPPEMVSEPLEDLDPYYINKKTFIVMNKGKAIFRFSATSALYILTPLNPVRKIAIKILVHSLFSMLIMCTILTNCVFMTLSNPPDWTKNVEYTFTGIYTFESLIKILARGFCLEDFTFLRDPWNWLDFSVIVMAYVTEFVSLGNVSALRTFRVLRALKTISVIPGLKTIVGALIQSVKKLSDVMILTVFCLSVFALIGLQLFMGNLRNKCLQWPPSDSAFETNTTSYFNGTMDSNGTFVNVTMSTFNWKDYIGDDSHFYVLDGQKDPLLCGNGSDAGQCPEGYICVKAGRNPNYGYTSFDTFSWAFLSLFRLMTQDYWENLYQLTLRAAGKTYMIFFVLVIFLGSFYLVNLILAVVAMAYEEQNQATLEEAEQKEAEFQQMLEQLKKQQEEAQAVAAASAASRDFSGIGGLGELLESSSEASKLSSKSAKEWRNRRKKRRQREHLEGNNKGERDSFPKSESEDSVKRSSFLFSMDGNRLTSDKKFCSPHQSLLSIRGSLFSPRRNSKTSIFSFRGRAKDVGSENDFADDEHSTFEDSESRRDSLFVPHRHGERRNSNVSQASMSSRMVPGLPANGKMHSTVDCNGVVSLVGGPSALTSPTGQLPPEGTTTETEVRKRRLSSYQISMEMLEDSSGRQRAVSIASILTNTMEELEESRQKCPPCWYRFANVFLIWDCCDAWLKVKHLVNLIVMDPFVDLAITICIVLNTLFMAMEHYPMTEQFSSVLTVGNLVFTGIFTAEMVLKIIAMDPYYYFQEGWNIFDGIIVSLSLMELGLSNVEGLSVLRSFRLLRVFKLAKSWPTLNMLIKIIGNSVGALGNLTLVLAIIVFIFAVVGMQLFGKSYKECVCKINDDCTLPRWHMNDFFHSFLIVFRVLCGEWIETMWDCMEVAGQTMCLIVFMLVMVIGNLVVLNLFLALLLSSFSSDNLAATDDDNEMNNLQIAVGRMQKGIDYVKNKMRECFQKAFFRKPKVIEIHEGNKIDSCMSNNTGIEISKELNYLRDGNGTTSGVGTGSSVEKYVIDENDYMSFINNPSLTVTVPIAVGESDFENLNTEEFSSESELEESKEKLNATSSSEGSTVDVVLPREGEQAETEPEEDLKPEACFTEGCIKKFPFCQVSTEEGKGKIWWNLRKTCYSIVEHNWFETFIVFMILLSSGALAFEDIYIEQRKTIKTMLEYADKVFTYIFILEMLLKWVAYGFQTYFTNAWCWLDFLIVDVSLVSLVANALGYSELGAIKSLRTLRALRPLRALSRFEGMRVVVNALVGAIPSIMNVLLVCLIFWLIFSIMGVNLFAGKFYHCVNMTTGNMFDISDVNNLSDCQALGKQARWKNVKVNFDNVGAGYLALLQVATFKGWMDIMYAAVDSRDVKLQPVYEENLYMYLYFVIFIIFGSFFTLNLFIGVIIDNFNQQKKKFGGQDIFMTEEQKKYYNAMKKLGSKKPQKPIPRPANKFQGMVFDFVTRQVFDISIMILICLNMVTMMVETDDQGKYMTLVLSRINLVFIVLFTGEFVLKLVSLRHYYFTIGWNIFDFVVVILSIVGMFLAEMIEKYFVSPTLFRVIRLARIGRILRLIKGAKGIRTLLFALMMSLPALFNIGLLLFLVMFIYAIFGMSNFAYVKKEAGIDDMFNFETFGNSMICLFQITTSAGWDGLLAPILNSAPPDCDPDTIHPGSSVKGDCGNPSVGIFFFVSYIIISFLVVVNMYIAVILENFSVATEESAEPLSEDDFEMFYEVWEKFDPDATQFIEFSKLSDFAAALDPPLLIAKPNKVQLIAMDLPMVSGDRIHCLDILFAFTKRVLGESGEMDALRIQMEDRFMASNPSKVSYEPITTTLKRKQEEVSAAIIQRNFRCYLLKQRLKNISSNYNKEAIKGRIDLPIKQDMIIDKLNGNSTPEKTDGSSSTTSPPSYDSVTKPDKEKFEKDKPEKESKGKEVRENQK

| Structure (SMILES) | IC50 (hNav1.3) | IC50 (hNav1.7) | IC50 (hNav1.4) | Nav1.4/Nav1.7 (hNav1.4) | IC50 (hNav1.5) |
| --- | --- | --- | --- | --- | --- |
| CC[C@H](C)[C@H](NC(=O)[C@@H](NC(=O)[C@H](CCCCN)NC(=O)[C@H](CCCNC(=N)N)NC(=O)[C@@H]1CSSC[C@@H]2NC(=O)[C@H](CCCCN)NC(=O)[C@H](CCCNC(=N)N)NC(=O)[C@H](CCCCN)NC(=O)[C@H](CO)NC(=O)[C@H](CC(=O)O)NC(=O)[C@@H]3CSSC[C@H](NC(=O)[C@H](CCCNC(=N)N)NC(=O)[C@H](CC(C)C)NC(=O)CNC(=O)[C@H](CCC(=O)O)NC(=O)[C@H](CSSC[C@H](NC(=O)[C@@H](N)Cc4ccc(O)cc4)C(=O)N[C@@H](CCC(N)=O)C(=O)N[C@@H](CCCCN)C(=O)N[C@@H](Cc4c[nH]c5ccccc45)C(=O)N[C@@H](CCSC)C(=O)N[C@@H](Cc4c[nH]c5ccccc45)C(=O)N[C@@H]([C@@H](C)O)C(=O)N3)NC2=O)C(=O)N[C@@H](CCCCN)C(=O)N[C@@H](CC(C)C)C(=O)N[C@@H](Cc2c[nH]c3ccccc23)C(=O)N1)[C@@H](C)CC)C(N)=O [compound 80] | 0.03 µM | 0.007 µM | 0.07 µM | 10 | 1.5 µM |
| CC[C@H](C)[C@H](NC(=O)[C@@H](NC(=O)[C@H](CCCCN)NC(=O)[C@H](CCCNC(=N)N)NC(=O)[C@@H]1CSSC[C@@H]2NC(=O)[C@H](C)NC(=O)[C@H](CCCNC(=N)N)NC(=O)[C@H](CCCCN)NC(=O)[C@H](CO)NC(=O)[C@H](CC(=O)O)NC(=O)[C@@H]3CSSC[C@H](NC(=O)[C@H](CCCNC(=N)N)NC(=O)[C@H](CC(C)C)NC(=O)CNC(=O)[C@H](CCC(=O)O)NC(=O)[C@H](CSSC[C@H](NC(=O)[C@H](C)N)C(=O)N[C@@H](CCC(N)=O)C(=O)N[C@@H](CCCCN)C(=O)N[C@@H](Cc4c[nH]c5ccccc45)C(=O)N[C@@H](CCSC)C(=O)N[C@@H](Cc4c[nH]c5ccccc45)C(=O)N[C@@H]([C@@H](C)O)C(=O)N3)NC2=O)C(=O)N[C@@H](CCCCN)C(=O)N[C@@H](CC(C)C)C(=O)N[C@@H](Cc2c[nH]c3ccccc23)C(=O)N1)[C@@H](C)CC)C(N)=O [compound 3] | 0.04 µM | 0.004 µM | 0.07 µM | 18 | 3.1 µM |
| CC[C@H](C)[C@H](NC(=O)[C@@H](NC(=O)[C@H](CCCCN)NC(=O)[C@H](CCCNC(=N)N)NC(=O)[C@@H]1CSSC[C@@H]2NC(=O)[C@H](C)NC(=O)[C@H](CCCNC(=N)N)NC(=O)[C@H](CCCCN)NC(=O)[C@H](CO)NC(=O)[C@H](CC(=O)O)NC(=O)[C@@H]3CSSC[C@H](NC(=O)[C@H](CCCNC(=N)N)NC(=O)[C@H](CC(C)C)NC(=O)CNC(=O)[C@H](CCC(=O)O)NC(=O)[C@H](CSSC[C@H](NC(=O)[C@@H](N)Cc4ccc(O)cc4)C(=O)N[C@@H](CCC(N)=O)C(=O)N[C@@H](CCCCN)C(=O)N[C@@H](Cc4c[nH]c5ccccc45)C(=O)N[C@@H](CCSC)C(=O)N[C@@H](Cc4c[nH]c5ccccc45)C(=O)N[C@@H](C)C(=O)N3)NC2=O)C(=O)N[C@@H](CCCCN)C(=O)N[C@@H](CC(C)C)C(=O)N[C@@H](Cc2c[nH]c3ccccc23)C(=O)N1)[C@@H](C)CC)C(N)=O [compound 9] | 0.21 µM | 0.025 µM | 0.25 µM | 10 | > 5 µM |
| CC[C@H](C)[C@H](NC(=O)[C@@H](NC(=O)[C@H](CCCCN)NC(=O)[C@H](CCCNC(=N)N)NC(=O)[C@@H]1CSSC[C@@H]2NC(=O)[C@H](C)NC(=O)[C@H](CCCNC(=N)N)NC(=O)[C@H](CCCCN)NC(=O)[C@H](CO)NC(=O)[C@H](CC(=O)O)NC(=O)[C@@H]3CSSC[C@H](NC(=O)[C@H](CCCNC(=N)N)NC(=O)[C@H](CC(C)C)NC(=O)CNC(=O)[C@H](CCC(=O)O)NC(=O)[C@H](CSSC[C@H](NC(=O)[C@@H](N)Cc4ccc(O)cc4)C(=O)N[C@@H](CCC(N)=O)C(=O)N[C@@H](CCCCN)C(=O)N[C@@H](Cc4c[nH]c5ccccc45)C(=O)N[C@@H](CCSC)C(=O)N[C@@H](Cc4c[nH]c5ccccc45)C(=O)N[C@@H](CCCNC(=N)N)C(=O)N3)NC2=O)C(=O)N[C@@H](CCCCN)C(=O)N[C@@H](CC(C)C)C(=O)N[C@@H](Cc2c[nH]c3ccccc23)C(=O)N1)[C@@H](C)CC)C(N)=O [compound 96] | 0.05 µM | 0.018 µM | 0.14 µM | 7 | 1.7 µM |
| CC[C@H](C)[C@H](NC(=O)[C@@H](NC(=O)[C@H](CCCCN)NC(=O)[C@H](CCCNC(=N)N)NC(=O)[C@@H]1CSSC[C@@H]2NC(=O)[C@H](C)NC(=O)[C@H](CCCNC(=N)N)NC(=O)[C@H](CCCCN)NC(=O)[C@H](CO)NC(=O)[C@H](CC(=O)O)NC(=O)[C@@H]3CSSC[C@H](NC(=O)[C@H](CCCNC(=N)N)NC(=O)[C@H](CC(C)C)NC(=O)CNC(=O)[C@H](CCC(=O)O)NC(=O)[C@H](CSSC[C@H](NC(=O)[C@@H](N)Cc4ccc(O)cc4)C(=O)N[C@@H](CCC(N)=O)C(=O)N[C@@H](CCCCN)C(=O)N[C@@H](Cc4c[nH]c5ccccc45)C(=O)N[C@@H](CCSC)C(=O)N[C@@H](Cc4c[nH]c5ccccc45)C(=O)N[C@@H]([C@@H](C)O)C(=O)N3)NC2=O)C(=O)N[C@@H](CCCCN)C(=O)N[C@@H](CCCCN)C(=O)N[C@@H](Cc2c[nH]c3ccccc23)C(=O)N1)[C@@H](C)CC)C(N)=O [compound 85] | 0.14 µM | 0.24 µM | 0.29 µM | 1 | 4.1 µM |
| CC[C@H](C)[C@H](NC(=O)[C@@H](NC(=O)[C@H](CCCCN)NC(=O)[C@H](CCCNC(=N)N)NC(=O)[C@@H]1CSSC[C@@H]2NC(=O)[C@H](C)NC(=O)[C@H](CCCNC(=N)N)NC(=O)[C@H](CCCCN)NC(=O)[C@H](CO)NC(=O)[C@H](CC(=O)O)NC(=O)[C@@H]3CSSC[C@H](NC(=O)[C@H](CCCNC(=N)N)NC(=O)[C@H](CC(C)C)NC(=O)CNC(=O)[C@H](CCC(=O)O)NC(=O)[C@H](CSSC[C@H](NC(=O)[C@@H](N)Cc4ccc(O)cc4)C(=O)N[C@@H](CCC(N)=O)C(=O)N[C@@H](CCCCN)C(=O)N[C@@H](Cc4c[nH]c5ccccc45)C(=O)N[C@@H](CCSC)C(=O)N[C@@H](Cc4c[nH]c5ccccc45)C(=O)N[C@@H]([C@@H](C)O)C(=O)N3)NC2=O)C(=O)N[C@@H](CCCCN)C(=O)N[C@@H](C)C(=O)N[C@@H](Cc2c[nH]c3ccccc23)C(=O)N1)[C@@H](C)CC)C(N)=O [compound 19] | 0.44 µM | 0.3 µM | 0.34 µM | 1 | > 5 µM |
| CC[C@H](C)[C@H](NC(=O)[C@@H](NC(=O)[C@H](CCCCN)NC(=O)[C@H](CCCNC(=N)N)NC(=O)[C@@H]1CSSC[C@@H]2NC(=O)[C@H](C)NC(=O)[C@H](CCCNC(=N)N)NC(=O)[C@H](CCCCN)NC(=O)[C@H](CO)NC(=O)[C@H](CC(=O)O)NC(=O)[C@@H]3CSSC[C@H](NC(=O)[C@H](CCCNC(=N)N)NC(=O)[C@H](CC(C)C)NC(=O)CNC(=O)[C@H](CCC(=O)O)NC(=O)[C@H](CSSC[C@H](NC(=O)[C@@H](N)Cc4ccc(O)cc4)C(=O)N[C@@H](CCC(N)=O)C(=O)N[C@@H](CCCNC(=N)N)C(=O)N[C@@H](Cc4c[nH]c5ccccc45)C(=O)N[C@@H](CCSC)C(=O)N[C@@H](Cc4c[nH]c5ccccc45)C(=O)N[C@@H]([C@@H](C)O)C(=O)N3)NC2=O)C(=O)N[C@@H](CCCCN)C(=O)N[C@@H](CC(C)C)C(=O)N[C@@H](Cc2c[nH]c3ccccc23)C(=O)N1)[C@@H](C)CC)C(N)=O [compound 92] | 0.07 µM | 0.014 µM | 0.16 µM | 11 | 2 µM |
| CC[C@H](C)[C@H](NC(=O)[C@H](CCCCN)NC(=O)[C@H](CCCCN)NC(=O)[C@H](CCCNC(=N)N)NC(=O)[C@@H]1CSSC[C@@H]2NC(=O)[C@H](C)NC(=O)[C@H](CCCNC(=N)N)NC(=O)[C@H](CCCCN)NC(=O)[C@H](CO)NC(=O)[C@H](CC(=O)O)NC(=O)[C@@H]3CSSC[C@H](NC(=O)[C@H](CCCNC(=N)N)NC(=O)[C@H](CC(C)C)NC(=O)CNC(=O)[C@H](CCC(=O)O)NC(=O)[C@H](CSSC[C@H](NC(=O)[C@@H](N)Cc4ccc(O)cc4)C(=O)N[C@@H](CCC(N)=O)C(=O)N[C@@H](CCCCN)C(=O)N[C@@H](Cc4c[nH]c5ccccc45)C(=O)N[C@@H](CCSC)C(=O)N[C@@H](Cc4c[nH]c5ccccc45)C(=O)N[C@@H]([C@@H](C)O)C(=O)N3)NC2=O)C(=O)N[C@@H](CCCCN)C(=O)N[C@@H](CC(C)C)C(=O)N[C@@H](Cc2c[nH]c3ccccc23)C(=O)N1)C(N)=O [compound 88] | 0.05 µM | 0.014 µM | 0.11 µM | 8 | 1.5 µM |
| CC[C@H](C)[C@H](NC(=O)[C@@H](NC(=O)[C@H](CCCCN)NC(=O)[C@H](CCCNC(=N)N)NC(=O)[C@@H]1CSSC[C@@H]2NC(=O)[C@H](C)NC(=O)[C@H](CCCNC(=N)N)NC(=O)[C@H](CCCCN)NC(=O)[C@H](CO)NC(=O)[C@H](CC(=O)O)NC(=O)[C@@H]3CSSC[C@H](NC(=O)[C@H](CCCNC(=N)N)NC(=O)[C@H](CC(C)C)NC(=O)CNC(=O)[C@H](C)NC(=O)[C@H](CSSC[C@H](NC(=O)[C@@H](N)Cc4ccc(O)cc4)C(=O)N[C@@H](CCC(N)=O)C(=O)N[C@@H](CCCCN)C(=O)N[C@@H](Cc4c[nH]c5ccccc45)C(=O)N[C@@H](CCSC)C(=O)N[C@@H](Cc4c[nH]c5ccccc45)C(=O)N[C@@H]([C@@H](C)O)C(=O)N3)NC2=O)C(=O)N[C@@H](CCCCN)C(=O)N[C@@H](CC(C)C)C(=O)N[C@@H](Cc2c[nH]c3ccccc23)C(=O)N1)[C@@H](C)CC)C(N)=O [compound 14] | 0.08 µM | 0.008 µM | 0.06 µM | 8 | 2 µM |
